Data: patent US7037644B1, “Means and methods for monitoring non-nucleoside reverse transcriptase inhibitor antiretroviral therapy and guiding therapeutic decisions in the treatment of HIV/AIDS” (ViroLogic, Inc., priority 1998, dated 2006)
“And” between values parts separate entries of the source, which are not always exact repeats. Equal entries are not always repeated. “Also recorded” adds a separate entry of the source.

Experiments:
Experiment in all cases: Phenotypic susceptibility assay (site directed mutant RTV)
Type in all cases: cell-based, HIV-1
G190S-RTV = conditions: for change in susceptibility (fold, IC50) vs wild type control RTV: G190S alone, below 1 = increased susceptibility; for change in susceptibility: serine at position 190, no other NNRTI mutations
Description: (§1) The resistance test vectors containing a functional luciferase gene cassette were constructed and host cells were transfected with the resistance test vector DNA. The resistant test vectors contained patient-derived reverse transcriptase and protease sequences that were either susceptible or resistant to the antiretroviral agents, such as nucleoside reverse transcriptase inhibitors, non-nucleoside reverse transcriptase inhibitors and protease inhibitors. The resistance test vector viral particles produced by transfecting the resistance test vector DNA into host cells, either in the presence or absence of protease inhibitors, were used to infect target host cells grown either in the absence of NRTI or NNRTI or in the presence of increasing concentrations of the drug. The amount of luciferase activity produced in infected target host cells in the presence of drug was compared to the amount of luciferase produced in infected target host cells in the absence of drug. Drug resistance was measured as the amount of drug required to inhibit by 50% the luciferase activity detected in the absence of drug (inhibitory concentration 50%, IC50). The IC50 values were determined by plotting percent drug inhibition vs. log10 drug concentration.
(§2) Host cells were seeded in 10-cm-diameter dishes and were transfected several days after plating with resistance test vector plasmid DNA and the envelope expression vector. Transfections were performed using a calcium-phosphate precipitation procedure. The cell culture media containing the DNA precipitate was replaced with fresh medium, from one to 24 hours, after transfection. Cell culture media containing resistance test vector viral particles was harvested one to four days after transfection and was passed through a […] filter before being stored at […]. HIV capsid protein (p24) levels in the harvested cell culture media were determined by an EIA method as described by the manufacturer (SIAC; Frederick, Md.). Before infection, target cells (293 and 293/T) were plated in cell culture media. Control infections were performed using cell culture media from mock transfections (no DNA) or transfections containing the resistance test vector plasmid DNA without the envelope expression plasmid. One to three or more days after infection the media was removed and cell lysis buffer (Promega) was added to each well. Cell lysates were assayed for luciferase activity (FIG. 3). The inhibitory effect of the drug was determined using the following equation: % luciferase inhibition=1−(RLUluc [drug]÷RLUluc)×100 where RLUluc [drug] is the relative light unit of luciferase activity in infected cells in the presence of drug and RLUluc is the Relative Light Unit of luciferase activity in infected cells in the absence of drug. IC50 values were obtained from the sigmoidal curves that were generated from the data by plotting the percent inhibition of luciferase activity vs. the log10 drug concentration. The drug inhibition curves are shown in (FIG. 3).
Resistance test vectors were constructed containing the G190S and G190A mutations. Mutations were introduced into the resistance test vector using the mega-primer PCR method for site-directed mutagenesis (Sakar and Sommar, Ibid.) Resistance test vectors containing the G190S or G190A mutations (G190S-RTV, or G190A-RTV) were tested using the phenotypic susceptibility assay and the results were compared to that of a genetically defined resistance test vector that was wild type at position G190. […]

G190A-RTV = conditions: for change in susceptibility: alanine at position 190, no other NNRTI mutations
Description: as §1
as §2, with “IC50 values were obtained from the sigmoidal curves that were generated from the data by plotting the percent inhibition of luciferase activity vs. the log10 drug concentration. The drug inhibition curves are shown in (FIG. 3).” left out

Y188L-RTV = conditions: for loss of susceptibility (fold, IC50) vs wild type control RTV: Y188L alone; for change in susceptibility: mutation at codon 188
Description: as §1, §2
The Y188L mutation was introduced into the resistance test vector using the mega-primer method for site-directed mutagenesis (Sakar and Sommar, Ibid.). A resistance test vector containing the Y188L mutation (Y188L-RTV) was then tested using the phenotypic assay described earlier and the results were compared to those determined using a genetically defined resistance test vector that was wild type at position 188. We determined the pattern of phenotypic susceptibility to the NNRTIs, delavirdine, nevirapine and efavirenz, in the Y188L-RTV. […] The approximate 100-fold loss of susceptibility to efavirenz was not as high as had been previously reported.

E138A-RTV = conditions: E138A alone
Description: as §1, §2
(§3) The E138A mutation alone and in combination with Y188L was introduced into resistance test vectors using the mega-primer method for site-directed mutagenesis (Sakar and Sommar, Ibid.). Resistance rest vectors containing the E138A mutation (E138A-RTV) or he E138 mutation along with the […] mutation (E138A-Y188L-RTV) were then tested using the phenotypic assay described earlier and the results were compared to those determined using a genetically defined resistance test vector that was wild type at positions 188 and 138. We determined the pattern of phenotypic susceptibility to the NNRTIs, delavirdine, nevirapine and efavirenz, in the E138A-RTV, Y188L-RTV and E138-Y188L-RTV.

E138A-Y188L-RTV = conditions: for loss of susceptibility (fold, IC50) vs wild type control RTV: E138A and Y188L; for change in susceptibility: mutations at codons 138 and 188
Description: as §1, §2, §3

Y181C-A98G-RTV = conditions: for loss of susceptibility (fold, IC50) vs wild type control RTV: Y181C and A98G; for change in susceptibility: mutations at codons 181 and 98
Description: as §1, §2
The Y181C and A98G mutations were introduced alone and in combination into resistance test vectors using the mega-primer method for site-directed mutagenesis (Sakar and Sommar, Ibid.). Resistance test vectors containing the Y181C mutation (Y181C-RTV) and the A98G mutation (A98G-RTV) and both mutations (Y181C-A98G-RTV) were then tested using the phenotypic assay described earlier and the results were compared to those determined using a genetically defined resistance test vector that was wild type at position 181 and 98. We determined the pattern of phenotypic susceptibility to the NNRTIs, delavirdine, neviraphine and efavirenz, in the three vectors.

V108I-RTV = conditions: for change in susceptibility (fold, IC50) vs wild type control RTV: V108I alone; for change in susceptibility: mutation at codon 108
Description: as §1, §2
The V108I mutation was introduced into the resistance test vector using the mega-primer method for site directed mutagenesis (Sakar and Sommar, Ibid.). A resistance test vector containing the V108I mutation (V108I-RTV) was then tested using the phenotypic assay described earlier and the results were compared to those determined using a genetically defined resistance test vector that was wild type at position 108. We determined the pattern of phenotypic susceptibility to the NNRTIs, delaviridine, nevirapine and efavirenz, in the V108I-RTV.

Row | SMILES | change in susceptibility (fold, IC50) vs wild type control RTV (G190S-RTV) | change in susceptibility (G190S-RTV) | change in susceptibility (G190A-RTV) | change in susceptibility (G190A-RTV; listed as delviridine) | loss of susceptibility (fold, IC50) vs wild type control RTV (Y188L-RTV) | change in susceptibility (Y188L-RTV) | change in susceptibility (fold, IC50) vs wild type control RTV (E138A-RTV) | loss of susceptibility (fold, IC50) vs wild type control RTV (E138A-Y188L-RTV) | change in susceptibility (E138A-Y188L-RTV) | loss of susceptibility (fold, IC50) vs wild type control RTV (Y181C-A98G-RTV) | change in susceptibility (Y181C-A98G-RTV) | change in susceptibility (fold, IC50) vs wild type control RTV (V108I-RTV) | change in susceptibility (V108I-RTV) | change in susceptibility (fold, IC50) vs wild type control RTV (G190A-RTV; G190A alone)
1 | CC(C)Nc1cccnc1N1CCN(C(=O)c2cc3cc(NS(C)(=O)=O)ccc3[nH]2)CC1 [delavirdine] | 0.5 fold | increase | increase | increased susceptibility | 9 fold | slight decrease | 1.6 fold | 75 fold | moderate decrease | 240 fold | significant decrease | 1.3 fold | no change | –
2 | O=C1Nc2ccc(Cl)cc2[C@@](C#CC2CC2)(C(F)(F)F)O1 [efavirenz] | 8 fold and 7.6 fold | – | – | – | 109 fold and ~100 fold and 110 fold | significant decrease | 1.4 fold | 88 fold | moderate decrese; also recorded: moderate decrease | 7 fold | substantial decrease; also recorded: slight decrease | 1.7 fold | no change | 8 fold
3 | Cc1ccnc2c1NC(=O)c1cccnc1N2C1CC1 [nevirapine] | 75 fold | decrease | decrease | – | greater than 800 fold | substantial decrease | 1.3 fold | greater than 800 fold | substantial decrease | greater than 800 fold | substantial decrease | 3 fold | slight decrease | –
